In the assay the target is Cannabinoid receptor 2 (Homo sapiens, UniProt P34972).
Chain of Cannabinoid receptor 2 (P34972 whole entry): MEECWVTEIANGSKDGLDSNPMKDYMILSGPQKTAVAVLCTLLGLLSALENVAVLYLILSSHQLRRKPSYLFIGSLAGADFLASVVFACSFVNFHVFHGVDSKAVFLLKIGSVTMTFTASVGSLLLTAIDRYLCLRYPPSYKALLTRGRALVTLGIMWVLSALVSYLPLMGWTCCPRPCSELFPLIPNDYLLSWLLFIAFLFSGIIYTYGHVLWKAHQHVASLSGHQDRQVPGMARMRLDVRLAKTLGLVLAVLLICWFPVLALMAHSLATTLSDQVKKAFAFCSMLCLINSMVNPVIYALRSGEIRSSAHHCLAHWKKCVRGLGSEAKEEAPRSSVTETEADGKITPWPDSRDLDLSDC

For orientation: EC50 means the midpoint of the concentration-response curve. Low values mean greater potency, high ones weaker potency. Compound `CCCCCc1cc(O)c2c(c1)OC(C)(C)c1ccc(C)cc1-2` [6,6,9-Trimethyl-3-pentyl-6H-benzo[c]chromen-1-ol(Cannabinol)] displayed an EC50 of 60 nM.
